Data published in PubChem BioAssay (NCI).
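Where inhibition never reached the appropriate level, the endpoint shown equals the highest concentration tested. Otherwise, values were interpolated linearly from a five-concentration, 48-hour dose response in 96-well plates. At the GI50, growth is halved. TGI is the concentration that stops growth completely.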 *1 amine or outer side, *2 acyl side, *3 side chain or, on linkers, in order; H or OH if unused. Where a SMILES comes first, the peptide text is derived from it. [ ]: non-standard residue; d: D form. The star is where a group is joined. ξ: configuration not given here. X11 = CCC(=O)CC(O)CC(C)CC(N[*:1])C(=O)[*:2]; ξLeu(3ξ-OH) = CC(C)C(O)C(N)C(=O)O; ξPro(4ξ-Me) = CC1CNC(C(=O)O)C1; X10 = CCC(C)/C=C/C(=O)*; Aib = CC(C)(N)C(=O)O; X12 = CC(CN(C)C)N*; βAla = NCCC(=O)O

Experiments:
Experiment in all cases: NCI tumour cell line growth inhibition, 48 h
BT-549 breast = test system: BT-549 breast
HOP-92 NSCLC = test system: HOP-92 NSCLC
UACC-257 melanoma = test system: UACC-257 melanoma
NCI-H23 lung = test system: NCI-H23 lung
NCI-H226 lung = test system: NCI-H226 lung
NCI-H522 lung = test system: NCI-H522 lung
MALME-3M melanoma = test system: MALME-3M melanoma
SK-MEL-5 melanoma = test system: SK-MEL-5 melanoma
IGROV1 ovarian = test system: IGROV1 ovarian
EKVX NSCLC = test system: EKVX NSCLC
SF-268 CNS = test system: SF-268 CNS
NCI/ADR-RES ovarian = test system: NCI/ADR-RES ovarian
HS 578T breast = test system: HS 578T breast
SNB-75 CNS = test system: SNB-75 CNS
T-47D breast = test system: T-47D breast
UO-31 renal = test system: UO-31 renal
NCI-H460 lung = test system: NCI-H460 lung
COLO 205 colon = test system: COLO 205 colon
HCT-15 colon = test system: HCT-15 colon
UACC-62 melanoma = test system: UACC-62 melanoma
SN12C renal = test system: SN12C renal
SK-MEL-28 melanoma = test system: SK-MEL-28 melanoma
LOX IMVI melanoma = test system: LOX IMVI melanoma
SNB-19 CNS = test system: SNB-19 CNS
HT29 colon = test system: HT29 colon
MDA-MB-435 = test system: MDA-MB-435
OVCAR-4 ovarian = test system: OVCAR-4 ovarian
K-562 leukemia = test system: K-562 leukemia
CCRF-CEM leukemia = test system: CCRF-CEM leukemia
HL-60(TB) leukemia = test system: HL-60(TB) leukemia
SW-620 colon = test system: SW-620 colon
ACHN renal = test system: ACHN renal
KM12 colon = test system: KM12 colon
SF-295 CNS = test system: SF-295 CNS
OVCAR-5 ovarian = test system: OVCAR-5 ovarian
SF-539 CNS = test system: SF-539 CNS
HCC-2998 colon = test system: HCC-2998 colon
TK-10 renal = test system: TK-10 renal
MOLT-4 leukemia = test system: MOLT-4 leukemia
PC-3 prostate = test system: PC-3 prostate
RPMI-8226 leukemia = test system: RPMI-8226 leukemia
MDA-MB-231 breast = test system: MDA-MB-231 breast
OVCAR-8 ovarian = test system: OVCAR-8 ovarian
U251 CNS = test system: U251 CNS
DU-145 prostate = test system: DU-145 prostate
CAKI-1 renal = test system: CAKI-1 renal
SK-OV-3 ovarian = test system: SK-OV-3 ovarian
SR leukemia = test system: SR leukemia
MCF7 breast = test system: MCF7 breast
RXF 393 renal = test system: RXF 393 renal
A549 NSCLC = test system: A549 NSCLC
SK-MEL-2 melanoma = test system: SK-MEL-2 melanoma
OVCAR-3 ovarian = test system: OVCAR-3 ovarian
A498 renal = test system: A498 renal
HOP-62 NSCLC = test system: HOP-62 NSCLC

## CCC(=O)CC(O)CC(C)CC(NC(=O)C1CC(C)CN1C(=O)/C=C/C(C)CC)C(=O)NC(C(=O)NC(C)(C)C(=O)NC(CC(C)C)C(=O)NC(CC(C)C)C(=O)NC(C)(C)C(=O)NC(C)(C)C(=O)NCCC(=O)NC(C)CN(C)C)C(O)C(C)C (stereo unspecified) (X10-[ξPro(4ξ-Me)][X11][ξLeu(3ξ-OH)][Aib]LL[Aib][Aib][βAla]-X12; configuration not given here)
BT-549 breast
  TGI: 11.3 µM
HOP-92 NSCLC
  TGI: 1.09 µM
UACC-257 melanoma
  TGI: 17 µM
NCI-H23 lung
  TGI: 7.7 µM
NCI-H226 lung
  TGI: 3.62 µM

## Fc1cc(C2=Nn3c(nnc3-c3cc(F)c(Cl)cc3Cl)SC2)c(Cl)cc1Cl
NCI-H522 lung
  GI50: 24.1 µM
  TGI: > 100 µM
MALME-3M melanoma
  GI50: 28.4 µM
  TGI: 66.7 µM
HOP-92 NSCLC
  GI50: 11.3 µM
  TGI: > 100 µM
SK-MEL-5 melanoma
  GI50: 13.4 µM
  TGI: 30.3 µM
IGROV1 ovarian
  GI50: 29.8 µM
  TGI: > 100 µM
EKVX NSCLC
  GI50: 24.6 µM
  TGI: 90.3 µM
SF-268 CNS
  GI50: 18.5 µM
  TGI: 61.3 µM
NCI/ADR-RES ovarian
  GI50: 27.4 µM
  TGI: > 100 µM
HS 578T breast
  GI50: 21.9 µM
  TGI: 55 µM
SNB-75 CNS
  GI50: 26.2 µM
  TGI: > 100 µM
T-47D breast
  GI50: 4.93 µM
  TGI: 32.5 µM
UO-31 renal
  GI50: 31.3 µM
  TGI: > 100 µM
NCI-H460 lung
  GI50: 17.6 µM
  TGI: > 100 µM
COLO 205 colon
  GI50: 19 µM
  TGI: 43.1 µM
HCT-15 colon
  GI50: 20.2 µM
  TGI: 70.2 µM
UACC-62 melanoma
  GI50: 13.3 µM
  TGI: 38.6 µM
SN12C renal
  GI50: 18.4 µM
  TGI: 55.7 µM
UACC-257 melanoma
  GI50: 30.2 µM
  TGI: > 100 µM
SK-MEL-28 melanoma
  GI50: 21.5 µM
  TGI: 54.3 µM
NCI-H23 lung
  GI50: 21.8 µM
  TGI: > 100 µM
LOX IMVI melanoma
  GI50: 21.6 µM
  TGI: 45.6 µM
SNB-19 CNS
  GI50: 22.7 µM
  TGI: 93.4 µM
HT29 colon
  GI50: 20.1 µM
  TGI: 56.3 µM
MDA-MB-435
  GI50: 27.8 µM
  TGI: 83.2 µM
OVCAR-4 ovarian
  GI50: 34.5 µM
  TGI: > 100 µM
K-562 leukemia
  GI50: 17.8 µM
  TGI: > 100 µM
CCRF-CEM leukemia
  GI50: 22 µM
  TGI: > 100 µM
HL-60(TB) leukemia
  GI50: 80.4 µM
  TGI: > 100 µM
SW-620 colon
  GI50: 22.6 µM
  TGI: 47.2 µM
NCI-H226 lung
  GI50: 14.9 µM
  TGI: 36 µM
ACHN renal
  GI50: 26.6 µM
  TGI: 90.9 µM
KM12 colon
  GI50: 28.5 µM
  TGI: 86.8 µM
SF-295 CNS
  GI50: 20.3 µM
  TGI: 51.9 µM
OVCAR-5 ovarian
  GI50: 56.8 µM
  TGI: > 100 µM
SF-539 CNS
  GI50: 18.9 µM
  TGI: 38 µM
HCC-2998 colon
  GI50: 31.6 µM
  TGI: > 100 µM
TK-10 renal
  GI50: 37.4 µM
  TGI: > 100 µM
MOLT-4 leukemia
  GI50: 16.9 µM
  TGI: 74.2 µM
PC-3 prostate
  GI50: 16.9 µM
  TGI: > 100 µM
RPMI-8226 leukemia
  GI50: 6 µM
  TGI: 35 µM
MDA-MB-231 breast
  GI50: 13.4 µM
  TGI: 34.5 µM
OVCAR-8 ovarian
  GI50: 26 µM
  TGI: 97.3 µM
U251 CNS
  GI50: 20.4 µM
  TGI: 64 µM
DU-145 prostate
  GI50: 36.6 µM
  TGI: > 100 µM
CAKI-1 renal
  GI50: 20.6 µM
  TGI: 60.7 µM
SK-OV-3 ovarian
  GI50: 29.2 µM
  TGI: > 100 µM
SR leukemia
  GI50: 25.4 µM
  TGI: > 100 µM
MCF7 breast
  GI50: 16.8 µM
  TGI: > 100 µM
RXF 393 renal
  GI50: 23.2 µM
  TGI: 62.5 µM
A549 NSCLC
  GI50: 23.7 µM
  TGI: 83.5 µM
SK-MEL-2 melanoma
  GI50: 65.3 µM
  TGI: > 100 µM
OVCAR-3 ovarian
  GI50: 11.5 µM
  TGI: 46.9 µM

## CC1(C)CC[C@]2(CO)CC[C@]3(C)C(=CC[C@@H]4[C@@]5(C)CC[C@H](NCO)C(C)(C)[C@@H]5CC[C@]43C)[C@@H]2C1
SF-268 CNS
  GI50: 2.39 µM
  TGI: 6.22 µM
A498 renal
  GI50: 1.38 µM
  TGI: 2.83 µM
CCRF-CEM leukemia
  GI50: 2.04 µM
  TGI: 5.94 µM
NCI-H226 lung
  GI50: 2.26 µM
  TGI: 5.73 µM
MOLT-4 leukemia
  GI50: 1.91 µM
  TGI: 5.1 µM
RPMI-8226 leukemia
  GI50: 1.75 µM
  TGI: 4.57 µM
CAKI-1 renal
  GI50: 1.85 µM
  TGI: 3.52 µM
SK-OV-3 ovarian
  GI50: 3.29 µM
  TGI: 9.06 µM

## Cl.Fc1c[c-]c(-c2ccccn2)c(F)c1.[Pt].c1ccc([PH+](c2ccccc2)c2ccccc2[PH+](c2ccccc2)c2ccccc2)cc1
HOP-62 NSCLC
  GI50: 0.0655 µM
  TGI: 0.32 µM
A498 renal
  GI50: 0.0493 µM
  TGI: 0.215 µM
UACC-257 melanoma
  GI50: 0.107 µM
  TGI: 0.698 µM
MDA-MB-435
  GI50: 0.0825 µM
  TGI: 0.268 µM
CCRF-CEM leukemia
  GI50: 0.078 µM
  TGI: 1.09 µM
HL-60(TB) leukemia
  GI50: 0.0395 µM
  TGI: 0.321 µM
ACHN renal
  GI50: 0.157 µM
  TGI: 0.46 µM
OVCAR-5 ovarian
  GI50: 0.14 µM
  TGI: 0.415 µM
TK-10 renal
  GI50: 0.141 µM
  TGI: 0.689 µM
DU-145 prostate
  GI50: 0.0677 µM
  TGI: 0.334 µM
SK-OV-3 ovarian
  GI50: 0.0883 µM
  TGI: 0.64 µM
RXF 393 renal
  GI50: 0.137 µM
  TGI: 0.296 µM
OVCAR-3 ovarian
  GI50: 0.0629 µM
  TGI: 0.211 µM
